# Data reported in US20210284621A1 (priority 2018, published 2021).
# Assays:
# CB2 receptor [1] = target: T1, CB2 receptor (Homo sapiens, UniProt P34972); test: CB2 competitive radioligand binding assay ([3H] WIN-55,212-2); design: expressed in transfected cells; host or cells: CHO-K1 cells; settings: for Fold Selectivity (CB1/CB2): Table 3, ratio of Ki CB1/CB2
# Procedure, shortened: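 CHO-K1 cells expressing human recombinant CB2 were incubated with compound (0.05 μM, 1% DMSO) and 2.4 nM [3H]WIN-55,212-2 in 20 mM HEPES pH 7.0, 0.5% BSA for 90 min at 37 °C. Percent inhibition of radioligand binding was reported.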
# CB2 receptor [2] = target: T1, CB2 receptor; test: cAMP Assay #1: CB2 adenylylcyclase assay in CHO cells; type: cell-based; design: expressed in transfected cells; host or cells: CHO cells
# Procedure: (§1) Compounds of the invention were assayed in an adenylylcyclase assay to determine agonist activity on the CB1 and CB2 receptors, the results of which are provided in Table 4. Exemplary methods for the adenylylcyclase assay can be found in the literature, for example, in Rhee, M-H., et al. Cannabinol Derivatives: Binding to Cannabinoid Receptors and Inhibition of Adenylylcyclase. J Med Chem. 40: 3228-3233 (1997).
# CB2 Activity as determined by Adenylylcyclase Assay: CB2 receptor agonist activity was measured by measuring cAMP production. A compound of the invention was incubated with CHO cells expressing human recombinant CB2 for 10 minutes at 37° C.
# (§2) Determination of EC50 values: The EC50 values (concentration producing a half-maximal response) were determined by non-linear regression analysis of the concentration-response curves generated with mean replicate values using Hill equation curve fitting: Y=D+[(A−D)/(1+(C/C50)^nH)], where Y=response, A=left asymptote of the curve, D=right asymptote of the curve, C=compound concentration, and C50=EC50, and nH=slope factor. This analysis was performed using software developed at Cerep (Hill software) and validated by comparison with data generated by the commercial software SigmaPlot® 4.0 for Windows® (© 1997 by SPSS Inc.).
# CB1 receptor [3] = target: T2, CB1 receptor (Homo sapiens, UniProt P21554); test: cell-based; design: host or cells: PathHunter cell lines
# [4] = system: 12 systems of human primary cells; test: BioMAP Diversity PLUS phenotypic screen; type: cell-based; settings: 3.3 μM; for Immune modulation, cell surface and tissue remodeling biomarkers: changes at least 1.5-fold from vehicle control
# Procedure: Compounds of the invention were assayed for their effects on 148 biomarkers of inflammation, immune modulation and tissue remodeling in the BioMAP® Diversity PLUS® (DiscoverX) platform designed to model aspects of human diseases in vitro (Kunkel 2004, Berg 2006, Melton 2013).
# The example compounds (3.3 μM) in Table 8 induced increases or decreases in the levels of the indicated 20 biomarkers, which are at least 1.5-fold change from vehicle control and are outside the significance prediction envelop. All compounds presented in Table 8 were not cytotoxic at the concentration tested.
# CB2 receptor [5] = target: T1, CB2 receptor; test: cAMP Assay #2: Hit Hunter cAMP assay, Gi-coupled agonist activity, CB2; type: cell-based; design: host or cells: cAMP Hunter cell lines; settings: for CB2 fold selectivity: Hit Hunter cAMP, CB1 EC50 / CB2 EC50
# CB1 receptor [6] = target: T2, CB1 receptor; test: cAMP Assay #1: CB1 adenylylcyclase assay in CHO cells; type: cell-based; design: expressed in transfected cells; host or cells: CHO cells
# Procedure: as §1
# CB1 Activity as determined by Adenylylcyclase Assay: CB1 receptor agonist activity was measured by measuring cAMP production. A compound of the invention was incubated with CHO cells expressing human recombinant CB1 for 20 minutes at 37° C.
# as §2
# CB2 receptor [7] = target: T1, CB2 receptor; test: cell-based; design: host or cells: cAMP Hunter cell lines
# Procedure, shortened: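 PathHunter β-Arrestin enzyme fragment complementation cells, EA-tagged β-Arrestin and PK-tagged receptor, exposed to compound for 90 to 180 minutes at 37° C. or room temperature, 1% vehicle. Chemiluminescence read 1 h after detection reagent; agonist % activity relative to vehicle and MAX control ligand.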
# CB1 receptor [8] = target: T2, CB1 receptor; test: CB1 competitive radioligand binding assay ([3H] SR141716A); design: expressed in transfected cells; host or cells: Chem-1 cells
# Procedure, shortened: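 Chem-1 cells expressing human recombinant CB1 incubated 90 min at 37° C with 2.0 nM [3H]SR141716A and compound at 0.5 μM (1% DMSO) in HEPES pH 7.4 buffer with MgCl2, CaCl2, 0.2% BSA. Read-out is % inhibition of radioligand binding.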
# CB1 receptor [9] = target: T2, CB1 receptor; test: cAMP Assay #2: Hit Hunter cAMP assay, Gi-coupled agonist activity, CB1; type: cell-based; design: host or cells: PathHunter cell lines
# LPS-induced PBMCs = test: Inflammatory cytokine release from LPS-induced PBMCs (Luminex); type: cell-based, human; settings: fold change from LPS-treated PBMCs, compounds 10 μM (DEX 1 μg/ml) 2 h, then LPS 0.1 μg/ml 24 h, negative = reduced
# Procedure: Compounds of the invention were assayed for their effect on inflammatory cytokine release from lipopolysaccharides (LPS)-induced PBMCs, isolated from a human blood sample, the results of which are provided in Table 7 as fold change. Exemplary methods for quantifying secretion of inflammatory cytokines in PBMCs are known in the art, for example, as described in Hailer et al., Infection and Immunity. 68(2):752-759 (2000); and Merlini et al., Frontiers in Immunology. 7:614 (2016); each of which is incorporated herein by reference with respect to methods for evaluating cytokine release in PBMCs.
# In brief, human blood samples from healthy volunteers were collected and PBMCs were isolated. PBMCs were cultured and each compound was assayed in triplicate at a final concentration of 10 μM for 2 hours. 1 μg/ml dexamethasone (DEX) served as a positive control. LPS was added at a final concentration of 0.1 μg/ml and further incubated for 24 hours. At the end of the incubation, the supernatants were collected and the levels of a panel of secreted cytokines were measured by a Human Magnetic Luminex® assay (R&D). The results in Table 7 are presented as a fold change from LPS-treated PBMCs. Reduced levels are expressed by negative values. OOR denotes values that are out of the standard curve range for the specific cytokine and thus, could not be accurately measured. Cytotoxicity was also determined. Compounds with cytotoxicity ≥50% was considered cytotoxic. Baseline cytotoxicity of untreated PBMCs was 17% and all compounds presented in Table 7 induced cytotoxicity below 25%.
# [10] = PathHunter agonist mode, read-out: CB2 Activity (β-Arrestin)
# [11] = OOR = out of standard curve range
# T2 sequence (P21554 whole entry): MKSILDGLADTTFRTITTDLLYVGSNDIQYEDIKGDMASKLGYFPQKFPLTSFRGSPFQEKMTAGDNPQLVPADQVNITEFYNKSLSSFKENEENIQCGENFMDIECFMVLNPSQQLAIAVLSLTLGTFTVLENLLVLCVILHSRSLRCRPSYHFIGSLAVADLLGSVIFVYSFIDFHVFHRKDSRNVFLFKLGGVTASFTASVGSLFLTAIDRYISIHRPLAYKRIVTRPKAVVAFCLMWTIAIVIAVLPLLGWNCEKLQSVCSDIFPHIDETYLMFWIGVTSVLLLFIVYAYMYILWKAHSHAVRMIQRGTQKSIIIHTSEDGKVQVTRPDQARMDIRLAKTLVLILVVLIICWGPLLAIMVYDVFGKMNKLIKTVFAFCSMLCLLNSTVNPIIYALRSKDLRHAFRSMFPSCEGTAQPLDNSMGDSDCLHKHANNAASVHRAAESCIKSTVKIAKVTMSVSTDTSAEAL
# T1 sequence (P34972 whole entry): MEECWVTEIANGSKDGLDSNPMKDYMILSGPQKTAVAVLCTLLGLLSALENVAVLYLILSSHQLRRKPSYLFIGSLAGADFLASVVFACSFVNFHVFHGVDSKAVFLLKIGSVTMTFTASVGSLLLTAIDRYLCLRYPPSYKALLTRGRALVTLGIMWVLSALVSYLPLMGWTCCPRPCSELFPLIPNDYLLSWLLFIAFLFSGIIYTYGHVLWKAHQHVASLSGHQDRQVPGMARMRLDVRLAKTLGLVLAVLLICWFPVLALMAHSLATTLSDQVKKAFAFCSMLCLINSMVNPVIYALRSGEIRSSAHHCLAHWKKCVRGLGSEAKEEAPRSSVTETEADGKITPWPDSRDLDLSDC
smiles,measurement,setting,value
"CCCCCCC(C)(C)c1cc(O)c2c(c1)OC(C)(C)c1ccc(C(=O)O)cc1-2 [Compound 31, 1-hydroxy-6,6-dimethyl-3-(2-methyloctan-2-yl)-6H-benzo[c]chromene-9-carboxylic acid]",Ki,CB2 receptor [1],2040 nM
same,inhibition at 0.05 µM,"CB2 receptor [1]; 0.05 μM compound, 2.4 nM [3H] WIN-55,212-2, 90 min 37° C.",20%
same,EC50,CB2 receptor [2],53 nM
same,EC50,CB1 receptor [3],> 3000 nM
same,"Immune modulation, cell surface and tissue remodeling biomarkers",[4],Reduced Eotaxin-3 and IP-10; increased MMP-1
same,EC50,CB2 receptor [5],68.4 nM
same,CB2 fold selectivity,CB2 receptor [5],9.3
same,EC50,CB1 receptor [6],> 100 nM
same,EC50,CB2 receptor [7]; [10],109 nM
same,Ki,CB1 receptor [8],> 3000 nM
same,inhibition at 0.5 µM,"CB1 receptor [8]; 0.5 μM compound, 2.0 nM [3H] SR141716A, 90 min 37° C.",12%
same,EC50,CB1 receptor [9],636 nM
"CCCCCCC(C)(C)c1cc(O)c2c(c1)OC(C)(C)[C@@H]1CC=C(C(=O)NC3CCC3)C[C@@H]21 [Compound 44, (6aR,10aR)-N-cyclobutyl-1-hydroxy-6,6-dimethyl-3-(2-methyloctan-2-yl)-6a,7,10,10a-tetrahydro-6H-benzo[c]chromene-9-carboxamide]",Ki,CB2 receptor [1],2.4 nM
same,Fold Selectivity (CB1/CB2),CB2 receptor [1],14.0
same,EC50,"CB1 receptor [3]; PathHunter agonist mode, read-out: CB1 Activity (β-Arrestin)",11.1 nM
same,"Immune modulation, cell surface and tissue remodeling biomarkers",[4],"Reduced MCP-1, P-selectin, and IL-1α"
same,EC50,CB2 receptor [7]; [10],1.6 nM
same,Ki,CB1 receptor [8],33.5 nM
"CCCCCCC(C)(C)c1cc(O)c2c(c1)OC(C)(C)[C@@H]1CC=C(C(=O)NC(C)C)C[C@@H]21 [Compound 91, (6aR,10aR)-1-hydroxy-N-isopropyl-6,6-dimethyl-3-(2-methyloctan-2-yl)-6a,7,10,10a-tetrahydro-6H-benzo[c]chromene-9-carboxamide]",Ki,CB2 receptor [1],3.2 nM
same,Fold Selectivity (CB1/CB2),CB2 receptor [1],10.9
same,IL17A,LPS-induced PBMCs,1.2 fold change
same,IL-1β,LPS-induced PBMCs,−1.4 fold change
same,IL-4,LPS-induced PBMCs,−1.6 fold change
same,IL-6,LPS-induced PBMCs,−2.2 fold change
same,IL-8,LPS-induced PBMCs,−1.3 fold change
same,IL-10,LPS-induced PBMCs,−2.3 fold change
same,MCP-1,LPS-induced PBMCs,−1.4 fold change
same,TNFα,LPS-induced PBMCs,−1.2 fold change
same,IL-12 (p70),LPS-induced PBMCs; [11],−1.7 fold change
same,L-31,LPS-induced PBMCs; [11],−2.1 fold change
same,EC50,CB1 receptor [3],20.9 nM
same,"Immune modulation, cell surface and tissue remodeling biomarkers",[4],"Reduced Eotaxin-3, P-selectin, CD69, and EGFR, IL-10"
same,EC50,CB2 receptor [5],1.5 nM
same,CB2 fold selectivity,CB2 receptor [5],4.5
same,EC50,CB2 receptor [7],1.7 nM
same,Ki,CB1 receptor [8],34.8 nM
same,EC50,CB1 receptor [9],6.9 nM
"CCCCCCC(C)(C)c1cc(O)c2c(c1)OC(C)(C)[C@@H]1CC=C(C(=O)NC3CCCC3)C[C@@H]21 [Compound 92, (6aR,10aR)-N-cyclopentyl-1-hydroxy-6,6-dimethyl-3-(2-methyloctan-2-yl)-6a,7,10,10a-tetrahydro-6H-benzo[c]chromene-9-carboxamide]",Ki,CB2 receptor [1],3.8 nM
same,Fold Selectivity (CB1/CB2),CB2 receptor [1],12.0
same,EC50,CB1 receptor [3],17.3 nM
same,"Immune modulation, cell surface and tissue remodeling biomarkers",[4],Reduced P-selectin
same,EC50,CB2 receptor [5],1.6 nM
same,CB2 fold selectivity,CB2 receptor [5],17.7
same,EC50,CB2 receptor [7],1.4 nM
same,Ki,CB1 receptor [8],45.7 nM
same,EC50,CB1 receptor [9],28.8 nM
"CCCCCCC(C)(C)c1cc(O)c2c(c1)OC(C)(C)[C@@H]1CC=C(C(=O)N3CCCCC3)C[C@@H]21 [Compound 93, ((6aR,10aR)-1-hydroxy-6,6-dimethyl-3-(2-methyloctan-2-yl)-6a,7,10,10a-tetrahydro-6H-benzo[c]chromen-9-yl)(piperidin-1-yl)methanone]",Ki,CB2 receptor [1],31.9 nM
same,Fold Selectivity (CB1/CB2),CB2 receptor [1],7.6
same,EC50,CB1 receptor [3],> 3000 nM
same,"Immune modulation, cell surface and tissue remodeling biomarkers",[4],"Reduced Eotaxin-3, P-selectin, CD69, and M-CSF; increased IL-6"
same,EC50,CB2 receptor [7]; [10],3.1 nM
same,Ki,CB1 receptor [8],243 nM
"CCCCCCC(C)(C)c1cc(O)c2c(c1)OC(C)(C)[C@@H]1CC=C(C(=O)NC(C)=N)C[C@@H]21 [Compound 94, (6aR,10aR)-1-hydroxy-N-(1-iminoethyl)-6,6-dimethyl-3-(2-methyloctan-2-yl)-6a,7,10,10a-tetrahydro-6H-benzo[c]chromene-9-carboxamide]",Ki,CB2 receptor [1],12.6 nM
same,Fold Selectivity (CB1/CB2),CB2 receptor [1],1.5
same,EC50,CB1 receptor [3],94.9 nM
same,"Immune modulation, cell surface and tissue remodeling biomarkers",[4],Reduced MCP-1 and CD69; increased IL-1α
same,EC50,CB2 receptor [5],6.3 nM
same,CB2 fold selectivity,CB2 receptor [5],1.3
same,EC50,CB2 receptor [7],4.3 nM
same,Ki,CB1 receptor [8],18.8 nM
same,EC50,CB1 receptor [9],7.9 nM
"CCCCCCC(C)(C)c1cc(O)c2c(c1)OC(C)(C)[C@@H]1CC=C(C(=O)NC(C)(C)C(F)(F)F)C[C@@H]21 [Compound 100, (6aR,10aR)-1-hydroxy-6,6-dimethyl-3-(2-methyloctan-2-yl)-N-(1,1,1-trifluoro-2-methylpropan-2-yl)-6a,7,10,10a-tetrahydro-6H-benzo[c]chromene-9-carboxamide]",Ki,CB2 receptor [1],7.2 nM
same,Fold Selectivity (CB1/CB2),CB2 receptor [1],10.0
same,EC50,CB1 receptor [3],257 nM
same,Anti-proliferation,[4]; cell type in which anti-proliferative effect was seen,Dermal fibroblasts
same,"Immune modulation, cell surface and tissue remodeling biomarkers",[4],"Reduced Eotaxin-3, P-selectin, and CD69,"
same,EC50,CB2 receptor [5],2.1 nM
same,CB2 fold selectivity,CB2 receptor [5],49.7
same,EC50,CB2 receptor [7]; [10],1.2 nM
same,Ki,CB1 receptor [8],72.3 nM
same,EC50,CB1 receptor [9],107 nM
